Results taken from PMC3144492 (Biochemistry, 2011).

Test system: SpUP
Conditions: 50 mM phosphate (co-substrate), 50 mM HEPES, pH 7.5

## O=c1ccn([C@@H]2O[C@H](CO)[C@@H](O)[C@H]2O)c(=O)[nH]1 [uridine]
  Km: 171 ± 5 µM
